The source of these data is paper PMC7285070, “Quercetin Is a Flavonoid Breast Cancer Resistance Protein Inhibitor with an Impact on the Oral Pharmacokinetics of Sulfasalazine in Rats” (Pharmaceutics, 2020).

Several values for one entry are separate records, joined by “and”; a condition that tells them apart may be missing. Identical values can stand only once. Like-named read-outs stand apart in the source and are kept apart here.

Data set [1] concerns HeLa cells. The data set can be described thus: FACS cellular accumulation of mitoxantrone (flow cytometry). Format: cell-based, human. To be noted: for percentage of cells with a significant uptake of MX, higher than at 2 h of treatment with MX alone: 1 μM MX alone. On the procedure: The cellular accumulation of quercetin was measured by FACSCalibur flow cytometry (Becton Dickinson, San Jose, CA, USA). For FACScan analysis, 2 × 10^5 HeLa cells/well were seeded into 6-well cell culture plates on the day before the experiment. On the following day, cells were treated with vehicle or quercetin and 1 μM MX. A time course experiment was conducted on HeLa cells following treatment with quercetin (1 and 100 μM) for 2, 4, and 6 h. After treatment, the cells were harvested by trypsinization and transferred to a fluorescence-activated cell sorting (FACS) tube, pelleted by centrifugation (1500 rpm, 5 min), and then resuspended in 200 μL of PBS. Flow cytometry analysis was performed using red fluorescence. A minimum of 10,000 cells were acquired per sample.

The target in data set [2] is T1, human BCRP (Homo sapiens, UniProt Q9UNQ0).
T1 sequence (Q9UNQ0 1-655): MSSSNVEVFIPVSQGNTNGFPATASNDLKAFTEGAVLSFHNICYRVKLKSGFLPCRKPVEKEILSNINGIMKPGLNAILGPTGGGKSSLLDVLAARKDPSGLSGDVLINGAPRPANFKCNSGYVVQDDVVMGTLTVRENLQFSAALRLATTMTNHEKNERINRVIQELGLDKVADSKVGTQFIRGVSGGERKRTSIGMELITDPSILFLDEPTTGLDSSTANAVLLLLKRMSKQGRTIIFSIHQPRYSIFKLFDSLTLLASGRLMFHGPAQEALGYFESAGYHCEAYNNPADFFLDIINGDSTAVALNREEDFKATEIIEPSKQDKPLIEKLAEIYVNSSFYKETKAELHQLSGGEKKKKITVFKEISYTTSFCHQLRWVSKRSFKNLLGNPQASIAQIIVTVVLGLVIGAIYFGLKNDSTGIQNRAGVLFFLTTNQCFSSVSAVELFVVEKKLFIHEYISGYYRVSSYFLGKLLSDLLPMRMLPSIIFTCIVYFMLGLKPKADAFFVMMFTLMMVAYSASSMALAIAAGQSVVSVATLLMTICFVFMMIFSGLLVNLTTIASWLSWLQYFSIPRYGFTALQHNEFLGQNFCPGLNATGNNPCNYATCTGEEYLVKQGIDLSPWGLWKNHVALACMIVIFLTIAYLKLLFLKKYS
The settings on record: read-out: Km value for prazosin; BCRP-mediated transport; cited from earlier work.

The next data set is described as follows: in vivo. Details: species or system rats. The settings on record: rat. On the procedure: To determine whether quercetin affects the intestinal efflux mediated by BCRP, we divided the male rats into two groups: A sulfasalazine (a substrate of BCRP) control group and a quercetin pretreatment plus sulfasalazine group (n = 4, each). Considering the similar expression levels of intestinal BCRP between male and female rats, male rats were used in this study. Briefly, overnight fasted male SD rats were anesthetized by intramuscular administration of 50 mg/kg tiletamine HCl/zolazepam HCl (Zoletil®) (Vibrac, TX, USA) and 10 mg/kg xylazine HCl (Rompun®, Bayer, Puteaux, France). While the rats were anesthetized, the femoral artery (for blood sampling) and vein (for supplementing body fluids) were catheterized using polyethylene tubing (PE 50; Clay Adams, Parsippany, NJ, USA). Upon recovery from anesthesia (i.e., after 4 h), quercetin was administered by oral gavage at 10 mg/kg (or 0 mg/kg in the case of the sulfasalazine control group; DMSO/polyethylene glycol 400/saline [1:4:5 (v/v/v)]). The pretreatment dose of quercetin was determined based on the compound solubility in the dosing vehicle and the likely daily dose of human dietary supplement. […] Immediately after each blood collection, an identical volume of saline was intravenously provided to the animal to compensate for fluid loss. To prevent blood clotting during blood collection, the cannula was filled with 25 IU/mL heparinized saline. The plasma fraction was separated from the blood samples by centrifugation (16,100 × g for 5 min at 4 °C) and stored at -80 °C until the LC-MS/MS assay. […] Briefly, an aliquot (50 μL) of a sample was vortex-mixed with an acetonitrile solution containing glipizide (300 ng/mL, internal standard); this was followed by centrifugation (16,100 × g for 5 min at 4 °C). An aliquot (5 μL) of the supernatant was directly injected into the LC-MS/MS system. […] For the internal standard glipizide, the transition m/z 445.[…]/z 320.9 was used. […] Standard non-compartmental pharmacokinetic analysis was carried out using WinNonlin Professional 5.0.1 software (Pharsight, Cary, NC, USA) to calculate the pharmacokinetic parameters, including the peak concentration (Cmax), time of the peak concentration (tmax), elimination half-life (t1/2), area under the plasma concentration-time curve from time zero to the last sampling point, 8 h (AUC8h), and elimination clearance (CL/F).

On the set-up of data set [3]: method as in PMID 22711747. The settings on record: BCRP-knockout rats, oral; cited from earlier work.
The test system of data set [4] is BCRP. Further details: method as in PMID 21354800. The settings on record: MCF-7/MX cells; read-out: IC50, Hoechst 33342 accumulation; cited from earlier work.
The subject of data set [5] is BCRP. Further details: method as in PMID 21354800. To be noted: MDCKII/BCRP cells; read-out: IC50, Hoechst 33342 accumulation; cited from earlier work.
On the set-up of data set [6]: method as in PMID 15948033. The settings on record: 10 mg/kg oral administration to rats; cited from earlier work.
Data set [7] concerns the target T1, human BCRP. The experiment in a line: Bi-directional transport of prazosin in MDCKII/BCRP cells. Format: cell-based. Further details: expressed in transfected cells; host or cells: MDCKII (Madin-Darby canine kidney II) cells. On the procedure:
At the end of the incubation, aliquots (300 μL for the apical chamber and 500 μL for the basolateral chamber) of the incubation mixture were collected from the donor and receiver chambers and subjected to LC-MS/MS assays. […] Briefly, an aliquot (50 μL) of a sample was vortex-mixed with an acetonitrile solution containing glipizide (300 ng/mL, internal standard); this was followed by centrifugation (16,100 × g for 5 min at 4 °C). An aliquot (5 μL) of the supernatant was directly injected into the LC-MS/MS system. […] For the internal standard glipizide, the transition m/z 445.[…]/z 320.9 was used. […] The efflux ratio (ER) was calculated by dividing the B-to-A apparent permeability coefficient (Papp, B-to-A) by the A-to-B apparent permeability coefficient (Papp, A-to-B). In the inhibition studies, the percentage of the control efflux ratio (%ER) was also calculated by dividing the value for ER in the presence of the inhibitor by that in the absence of the inhibitor (i.e., in the control).

On the set-up of data set [8]: method as in PMID 15608138. To be noted: rats or P-gp-knockout mice; cited from earlier work.
A further data set deals with mouse BCRP. Further details: method as in PMID 15608138. To be noted: cited from earlier work.
The target in data set [9] is T1, human BCRP. Further details: expressed in transfected cells; host or cells: MDCKII (Madin-Darby canine kidney II) cells; method as in PMID 15608138. To be noted: cited from earlier work.
For data set [10], the system named is HeLa cells. The experiment in a line: Cytotoxicity assay (CCK-8) of mitoxantrone with or without BCRP inhibitor. In kind it is cell-based, human. The settings on record: for IC50: 24 h, CCK-8. On the procedure: Dojindo Molecular Technologies, Kumamoto, Japan) following the manufacturer’s instructions. HeLa cells (at a density of 1 × 10^4 cells per well) were seeded and cultured overnight in 96-well plates. […] The absorbance was measured at a wavelength of 450 nm using a microplate reader (BioTeK, Highland Park, WI, USA).

In the case of `COc1ccc2c3c([nH]c2c1)[C@H](CC(C)C)N1C(=O)[C@H](CCC(=O)OC(C)(C)C)NC(=O)[C@@H]1C3` [Ko143], the “internalization of MX when co-administered with inhibitor” value with HeLa cells [1] (1 μM Ko143 with MX) is listed as “considerably high number of cells that internalized MX”.
Take `COc1cc2nc(N3CCN(C(=O)c4ccco4)CC3)nc(N)c2cc1OC` [prazosin, Prazosin]: the Km at human BCRP [2] was 128 µM.
In the data set “in vivo” (male, SD, po, 2 mg/kg), `O=C(O)c1cc(/N=N/c2ccc(S(=O)(=O)Nc3ccccn3)cc2)ccc1O` [sulfasalazine] had an AUC8h of 44500 ± 11800 ng·min/mL, a CL/F of 33.2 ± 10.2 mL/min/kg, a Cmax of 179 ± 23.0 ng/mL and a t1/2 of 242 ± 80.7 min. Besides, the tmax in “in vivo” (male, SD, po, 2 mg/kg) turned out to be 22.5 ± 8.70 min. In addition, in “in vivo” (male, SD, po, 2 mg/kg, AUC8h), the exposure AUC(0-t) is 428 ng·h/mL. This compound also returned a CL/F in “in vivo” (male, SD, po, 2 mg/kg, CL/F) of 52.5 ± 33.5 mL/min/kg. In “in vivo” (male, SD, po, 2 mg/kg, Cmax), this compound gave a Cmax of 122 ± 23.2 ng/mL. For the same compound, in the data set “in vivo” (male, SD, po, 2 mg/kg, t1/2), the half-life was 383 ± 111 min. This compound also gave a tmax in the data set “in vivo” (male, SD, po, 2 mg/kg, tmax) of 30 min. Besides, the “change in the elimination half-life (t1/2) of sulfasalazine, quercetin pretreatment vs control” value in “in vivo” was “no significant change”. Further, the “increase in absorption (AUC8h, Cmax) of sulfasalazine in knockout rats” value in [3] is given as “approximately 20 fold”.
Turning to `O=c1c(O)c(-c2ccc(O)c(O)c2)oc2cc(O)cc(O)c12` [quercetin, Quercetin], the IC50 in the data set with BCRP [4] is 7.6 µM. In the data set on BCRP [5], the IC50 is 6.9 µM. Also, in data set [6], the Cmax was 0.21 µg/mL and the oral bioavailability is reported as 5.3%. At human BCRP [7], this compound registered an IC50 of 4.22 µM and a Ki of 3.91 µM.
For the compound `O=c1cc(-c2ccccc2)oc2cc(O)cc(O)c12` [chrysin], the “effect of coadministered flavonoid on the pharmacokinetics of topotecan” value in data set [8] is recorded as “no significant effects”. In addition, the “inhibition of mouse BCRP” value in the data set with mouse BCRP is listed as “weak inhibitors”. Besides, the “inhibition of human BCRP” value at human BCRP [9] is on record as “potent inhibitors”.
In the case of `O=c1cc(-c2ccccc2)oc2c1ccc1ccccc12` [7,8-benzoflavone], the “effect of coadministered flavonoid on the pharmacokinetics of topotecan” value in data set [8] is listed as “no significant effects”. Also, in the data set on mouse BCRP, the “inhibition of mouse BCRP” value is listed as “weak inhibitors”. Also, the “inhibition of human BCRP” value on human BCRP [9] was “potent inhibitors”.
Consider `O=C1c2c(O)ccc(O)c2C(=O)c2c(NCCNCCO)ccc(NCCNCCO)c21` [mitoxantrone], for which the “percentage of cells with a significant uptake of MX, higher than at 2 h of treatment with MX alone” value came out at 17.2% with HeLa cells [1] (4 h) and 27.1% in the data set with HeLa cells [1] (6 h). The “cellular uptake of MX, higher than at 2 h of treatment with MX alone” value with HeLa cells [1] (1 μM MX with 1 μM quercetin, 4 h) is listed as 30.2%; in the data set with HeLa cells [1] (1 μM MX with 1 μM quercetin, 6 h), 35.9%; with HeLa cells [1] (1 μM MX with 100 μM quercetin, 4 h), 45.3%; in the data set on HeLa cells [1] (1 μM MX with 100 μM quercetin, 6 h), 67.4%. The half-maximal inhibitory concentration (IC50) in the data set with HeLa cells [10] (Homo sapiens, in the presence of Ko143 (1 μM)) turned out to be 620 nM; in the data set with HeLa cells [10] (Homo sapiens, HeLa, mitoxantrone alone), 5830 nM; in the data set on HeLa cells [10] (Homo sapiens, HeLa, with 1 μM quercetin), 1130 nM; with HeLa cells [10] (Homo sapiens, HeLa, with 100 μM quercetin) it was 478 nM; with HeLa cells [10] (with 100 μM quercetin), 480 nM. Moreover, the “IC50 of mitoxantrone as percentage of the control value (mitoxantrone alone)” value in the data set with HeLa cells [10] (with 1 μM quercetin) is 19.3%; in the data set with HeLa cells [10] (with 100 μM quercetin), 8.2% and 8.23%.

As usually defined, the Km is the concentration of substrate that gives half-maximal velocity. One may read the CL/F as the apparent clearance, not corrected for the fraction that reaches the circulation. For orientation: Cmax means the maximum level reached in the sampled fluid or tissue. A word on the AUC(0-t): it is exposure summed from dosing to a finite time, without extrapolation to infinity. Low readings indicate low exposure, high ones high exposure. Broadly, the half-life is the time needed for the level to fall by half in the phase considered. Low readings indicate fast loss, high ones slow loss. The term IC50 denotes the concentration needed to halve the response being measured. A word on the Ki: it is a measure of affinity in units of concentration, obtained from inhibition or displacement.
